Source: ChEMBL document CHEMBL1201862, “PubChem BioAssay data set” (2004)
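Dose response: 5 concentrations. Exposure: 48 h. Format: 96-well plates. Endpoint: linear interpolation; highest concentration if not reached. GI50 marks 50% less growth.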 Activity calls are given as the source filed them. Rule as the data show it: active = GI50 up to about 1.1 µM and inactive = higher.

Legend:
Experiment in all cases: NCI anticancer screen, dose series, 48 h
SF-268 = tested on: SF-268
M14 = tested on: M14
LOX IMVI = tested on: LOX IMVI
A549 = tested on: A549
COLO 205 = tested on: COLO 205
HOP-62 = tested on: HOP-62
NCI-H522 = tested on: NCI-H522
KM12 = tested on: KM12
HCT-15 = tested on: HCT-15
A498 = tested on: A498
UACC-62 = tested on: UACC-62
HOP-92 = tested on: HOP-92
NCI-H23 = tested on: NCI-H23
NCI-H226 = tested on: NCI-H226
SK-OV-3 = tested on: SK-OV-3
ACHN = tested on: ACHN
Malme-3M = tested on: Malme-3M
T47D = tested on: T47D
786-0 = tested on: 786-0

Row | SMILES | GI50 (SF-268) | GI50 (M14) | GI50 (LOX IMVI) | GI50 (A549) | GI50 (COLO 205) | GI50 (HOP-62) | GI50 (NCI-H522) | GI50 (KM12) | GI50 (HCT-15) [µM] | GI50 (A498) | GI50 (UACC-62) | GI50 (HOP-92) | GI50 (NCI-H23) | GI50 (NCI-H226) | GI50 (SK-OV-3) | GI50 (ACHN) | GI50 (Malme-3M) | GI50 (T47D) | GI50 (786-0)
1 | CN1CC[C@]23c4c5ccc(O)c4O[C@H]2C(O)CC[C@@]3(O)[C@H]1C5 (some centres undefined) | > 100 µM (inactive) | > 100 µM (inactive) | > 100 µM (inactive) | > 100 µM (inactive) | > 100 µM (inactive) | > 100 µM (inactive) | > 100 µM (inactive) | > 100 µM (inactive) | > 100 | > 100 µM (inactive) | > 100 µM (inactive) | > 100 µM (inactive) | > 100 µM (inactive) | > 100 µM (inactive) | > 100 µM (inactive) | > 100 µM (inactive) | > 100 µM (inactive) | > 100 µM (inactive) | > 100 µM (inactive)
2 | CCOC(=O)C(Cc1ccc(N(CCCl)CCCl)cc1)NC(=O)CCCN1C(=O)CN=C(c2ccccc2)c2cc(Cl)ccc21 (centres undefined) | 4.01 µM (inactive) | 7 µM (inactive) | 3.18 µM (inactive) | 39.1 µM (inactive) | 16.2 µM (inactive) | 36.9 µM (inactive) | 3.03 µM (inactive) | 25.5 µM (inactive) | 20.6 | 39.9 µM (inactive) | 2.72 µM (inactive) | 3.77 µM (inactive) | 9.66 µM (inactive) | 35.2 µM (inactive) | > 76.2 µM (inactive) | 7.08 µM (inactive) | 2.35 µM (inactive) | 3.55 µM (inactive) | 10.2 µM (inactive)
3 | O=C1CCN/C(=N\C(=O)C(F)(F)F)N1CCc1c[nH]c2ccccc12 | > 100 µM (inactive) | > 100 µM (inactive) | > 100 µM (inactive) | > 100 µM (inactive) | > 100 µM (inactive) | > 100 µM (inactive) | > 100 µM (inactive) | > 100 µM (inactive) | > 100 | > 100 µM (inactive) | > 100 µM (inactive) | > 100 µM (inactive) | > 100 µM (inactive) | > 100 µM (inactive) | > 100 µM (inactive) | > 100 µM (inactive) | > 100 µM (inactive) | > 100 µM (inactive) | > 100 µM (inactive)
4 | COc1ccc(OC)c(-c2nc3n(c2/C=C2/C(=O)Nc4ccccc42)CCS3)c1 | 67.5 µM (inactive) | 37.4 µM (inactive) | 51.2 µM (inactive) | 63.7 µM (inactive) | 39.5 µM (inactive) | 58.6 µM (inactive) | 34 µM (inactive) | 30.1 µM (inactive) | 42.3 | 48.5 µM (inactive) | 48.4 µM (inactive) | 48.6 µM (inactive) | > 100 µM (inactive) | > 100 µM (inactive) | 72.9 µM (inactive) | 90.6 µM (inactive) | 92.7 µM (inactive) | 35.1 µM (inactive) | > 100 µM (inactive)
5 | CC1C(=O)CC[C@@]2(C)C(=O)CCCC12O (some centres undefined) | > 100 µM (inactive) | > 100 µM (inactive) | > 100 µM (inactive) | > 100 µM (inactive) | > 100 µM (inactive) | > 100 µM (inactive) | > 100 µM (inactive) | > 100 µM (inactive) | > 100 | > 100 µM (inactive) | > 100 µM (inactive) | > 100 µM (inactive) | > 100 µM (inactive) | > 100 µM (inactive) | > 100 µM (inactive) | > 100 µM (inactive) | > 100 µM (inactive) | > 100 µM (inactive) | > 100 µM (inactive)
6 | CCOc1c(OC)cc(C2c3cc4c(c(OCC)c3CC3COC(=O)C32)OCO4)cc1OC (centres undefined) | 7.21 µM (inactive) | 3.15 µM (inactive) | 1.67 µM (inactive) | 2.86 µM (inactive) | 2.22 µM (inactive) | 1.78 µM (inactive) | 2.25 µM (inactive) | 0.962 µM (active) | 0.608 | 10.9 µM (inactive) | 0.365 µM (active) | 37.1 µM (inactive) | 1.82 µM (inactive) | 6.84 µM (inactive) | 4.03 µM (inactive) | 1.79 µM (inactive) | 11.1 µM (inactive) | 23 µM (inactive) | 2.62 µM (inactive)
7 | C=C1C(=O)OC2/C=C(\CO)C3OC3C3OC3(C)CC(OC(=O)/C(=C/C)CO)C12 (centres undefined) | 37.2 µM (inactive) | > 100 µM (inactive) | 48.6 µM (inactive) | > 100 µM (inactive) | 34.4 µM (inactive) | > 100 µM (inactive) | 15.8 µM (inactive) | > 100 µM (inactive) | 36.6 | > 100 µM (inactive) | 57.3 µM (inactive) | > 100 µM (inactive) | 60.3 µM (inactive) | > 100 µM (inactive) | > 100 µM (inactive) | 49.5 µM (inactive) | 25.5 µM (inactive) | 92.9 µM (inactive) | 36.8 µM (inactive)
8 | CCc1ccc(/C=C/C(=O)C2CN(CC)CCC2(O)/C=C/c2ccc(CC)cc2)cc1 (centres undefined) | 4.57 µM (inactive) | 2.61 µM (inactive) | 1.51 µM (inactive) | 7.08 µM (inactive) | 2.45 µM (inactive) | 1.91 µM (inactive) | 2.59 µM (inactive) | 1.87 µM (inactive) | 3.24 | 10.7 µM (inactive) | 4.92 µM (inactive) | 1.71 µM (inactive) | 4.61 µM (inactive) | 4.41 µM (inactive) | 12.3 µM (inactive) | 1.95 µM (inactive) | 7.31 µM (inactive) | 4.15 µM (inactive) | 1.75 µM (inactive)
9 | Cn1c2ccc3cc2c(=S)c2cc(ccc21)OCCOCCOCCOCCOCCO3 | > 10 µM (inactive) | > 10 µM (inactive) | > 10 µM (inactive) | > 10 µM (inactive) | > 10 µM (inactive) | > 10 µM (inactive) | > 10 µM (inactive) | > 10 µM (inactive) | > 10 | > 10 µM (inactive) | > 10 µM (inactive) | > 10 µM (inactive) | > 10 µM (inactive) | > 10 µM (inactive) | > 10 µM (inactive) | > 10 µM (inactive) | > 10 µM (inactive) | > 10 µM (inactive) | > 10 µM (inactive)
10 | Oc1cc(-c2ccc(F)cc2)nc2ncc(Cl)cc12 | 67 µM (inactive) | 26.9 µM (inactive) | 28.6 µM (inactive) | 35.5 µM (inactive) | 22.3 µM (inactive) | 32.2 µM (inactive) | 10.5 µM (inactive) | 6.17 µM (inactive) | 4.62 | 17.4 µM (inactive) | 9.71 µM (inactive) | 2.94 µM (inactive) | 38.2 µM (inactive) | 3.03 µM (inactive) | 45.5 µM (inactive) | > 73.1 µM (inactive) | 15.7 µM (inactive) | 48.4 µM (inactive) | 32.7 µM (inactive)
11 | COc1ccc(-c2coc3cc(OC)cc(O)c3c2=O)cc1 [4',7-DIMETHOXY-5-HYDROXYGENISTEIN] | 51.3 µM (inactive) | 52.7 µM (inactive) | > 100 µM (inactive) | > 100 µM (inactive) | > 100 µM (inactive) | 32.4 µM (inactive) | > 100 µM (inactive) | > 100 µM (inactive) | > 100 | 24.8 µM (inactive) | > 100 µM (inactive) | 7.41 µM (inactive) | 30.8 µM (inactive) | > 100 µM (inactive) | > 100 µM (inactive) | 34.4 µM (inactive) | > 100 µM (inactive) | > 100 µM (inactive) | 25.8 µM (inactive)
